Measurements as given in the supplement of paper PMC4628005.

Columns and labels:
Settings in all cases: drug exposure time: 96 h
Erlotinib = compound: C#Cc1cccc(Nc2ncnc3cc(OCCOC)c(OCCOC)cc23)c1 [Erlotinib]
Method: (§1)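 Breast cancer cell lines were grown in RPMI 1640 with 10% FBS on collagen I-coated 96-well plates and treated for 96 h (from 24 h after seeding) with 12 dilutions per drug, in triplicate. Growth was read by sulforhodamine B total-protein staining (absorbance 570 nm) relative to diluent control, and IC50 was calculated. The top dose was 1e-5 M for most drugs; Bortezomib went to 2e-5 M and Sirolimus and 17-AAG to 2e-6 M[…].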

Docetaxel = compound: CC(=O)O[C@@]12CO[C@@H]1C[C@H](O)[C@@]1(C)C(=O)[C@H](O)C3=C(C)[C@@H](OC(=O)[C@H](O)[C@@H](NC(=O)OC(C)(C)C)c4ccccc4)C[C@@](O)([C@@H](OC(=O)c4ccccc4)[C@H]21)C3(C)C [Docetaxel]
Method: as §1

Paclitaxel = compound: CC(=O)O[C@H]1C(=O)[C@@]2(C)[C@H]([C@H](OC(=O)c3ccccc3)[C@]3(O)C[C@H](OC(=O)[C@H](O)[C@@H](NC(=O)c4ccccc4)c4ccccc4)C(C)=C1C3(C)C)[C@]1(OC(C)=O)CO[C@@H]1C[C@@H]2O [Paclitaxel]
Method: as §1

MI-219 = compound: CC(C)(C)C[C@H]1N[C@@H](C(=O)NCC[C@H](O)CO)[C@H](c2cccc(Cl)c2)[C@@]12C(=O)Nc1cc(Cl)c(F)cc12 [MI-219]
Method: as §1

Tamoxifen = compound: CC/C(=C(\c1ccccc1)c1ccc(OCCN(C)C)cc1)c1ccccc1 [Tamoxifen]
Method: as §1

Sunitinib = compound: CCN(CC)CCNC(=O)c1c(C)[nH]c(/C=C2\C(=O)Nc3ccc(F)cc32)c1C [Sunitinib]
Method: as §1

Methotrexate = compound: CN(Cc1cnc2nc(N)nc(N)c2n1)c1ccc(C(=O)N[C@@H](CCC(=O)O)C(=O)O)cc1 [Methotrexate]
Method: as §1

Sorafenib = compound: CNC(=O)c1cc(Oc2ccc(NC(=O)Nc3ccc(Cl)c(C(F)(F)F)c3)cc2)ccn1 [Sorafenib]
Method: as §1

Vandetanib = compound: COc1cc2/c(=N/c3ccc(Br)cc3F)nc[nH]c2cc1OCC1CCN(C)CC1 [Vandetanib]
Method: as §1

Gefitinib = compound: COc1cc2ncnc(Nc3ccc(F)c(Cl)c3)c2cc1OCCCN1CCOCC1 [Gefitinib]
Method: as §1

Nutlin-3 = compound: COc1ccc(C2=N[C@@H](c3ccc(Cl)cc3)[C@@H](c3ccc(Cl)cc3)N2C(=O)N2CCNC(=O)C2)c(OC(C)C)c1 [Nutlin-3]
Method: as §1

Doxorubicin = compound: COc1cccc2c1C(=O)c1c(O)c3c(c(O)c1C2=O)C[C@@](O)(C(=O)CO)C[C@@H]3O[C@H]1C[C@H](N)[C@H](O)[C@H](C)O1 [Doxorubicin]
Method: as §1

Lapatinib = compound: CS(=O)(=O)CCNCc1ccc(-c2ccc3ncnc(Nc4ccc(OCc5cccc(F)c5)c(Cl)c4)c3c2)o1 [Lapatinib]
Method: as §1

Panobinostat = compound: Cc1[nH]c2ccccc2c1CCNCc1ccc(/C=C/C(=O)NO)cc1 [Panobinostat]
Method: as §1

Brivanib = compound: Cc1cc2c(F)c(Oc3ncnn4cc(OC[C@@H](C)O)c(C)c34)ccc2[nH]1 [Brivanib]
Method: as §1

Dasatinib = compound: Cc1nc(Nc2ncc(C(=O)Nc3c(C)cccc3Cl)s2)cc(N2CCN(CCO)CC2)n1 [Dasatinib]
Method: as §1

Quisinostat = compound: Cn1cc(CNCC2CCN(c3ncc(C(=O)NO)cn3)CC2)c2ccccc21 [Quisinostat]
Method: as §1

Tipifarnib = compound: Cn1cncc1[C@@](N)(c1ccc(Cl)cc1)c1ccc2c(c1)c(-c1cccc(Cl)c1)cc(=O)n2C [Tipifarnib]
Method: as §1

Cisplatin = compound: N.N.[Cl][Pt][Cl] [Cisplatin]
Method: as §1

Azacitidine = compound: Nc1ncn([C@@H]2O[C@H](CO)[C@@H](O)[C@H]2O)c(=O)n1 [Azacitidine]
Method: as §1

Decitabine = compound: Nc1ncn([C@H]2C[C@H](O)[C@@H](CO)O2)c(=O)n1 [Decitabine]
Method: as §1

Belinostat = compound: O=C(/C=C/c1cccc(S(=O)(=O)Nc2ccccc2)c1)NO [Belinostat]
Method: as §1

Vorinostat = compound: O=C(CCCCCCC(=O)Nc1ccccc1)NO [Vorinostat]
Method: as §1

ARQ197 = compound: O=C1NC(=O)[C@@H](c2cn3c4c(cccc24)CCC3)[C@@H]1c1c[nH]c2ccccc12 [ARQ197]
Method: as §1

Mitoxantrone = compound: O=C1c2c(O)ccc(O)c2C(=O)c2c(NCCNCCO)ccc(NCCNCCO)c21 [Mitoxantrone]
Method: as §1

5-Fluorouracil = compound: O=c1[nH]cc(F)c(=O)[nH]1 [5-Fluorouracil]
Method: as §1

Serdemetan = compound: c1ccc2c(CCNc3ccc(Nc4ccncc4)cc3)c[nH]c2c1 [Serdemetan]
Method: as §1

17-AAG = compound: C=CCNC1=C2C[C@@H](C)C[C@H](OC)[C@H](O)[C@@H](C)/C=C(\C)[C@H](OC(N)=O)[C@@H](OC)/C=C\C=C(/C)C(=O)NC(=CC1=O)C2=O [17-AAG]
Method: (§2)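 Same SRB 96 h IC50 screen on breast cancer cell lines (RPMI 1640 + 10% FBS, collagen I-coated 96-well plates, triplicates, 12 dilutions), for drugs with a different dose range: Bortezomib up to 2e-5 M; Sirolimus and 17-AAG up to 2e-6 M. Sirolimus values at the 2e-6 M top dose are censored.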

Bortezomib = compound: CC(C)C[C@H](NC(=O)[C@H](Cc1ccccc1)NC(=O)c1cnccn1)B(O)O [Bortezomib]
Method: as §2

Sirolimus = compound: CO[C@H]1C[C@@H]2CC[C@@H](C)[C@@](O)(O2)C(=O)C(=O)N2CCCC[C@H]2C(=O)O[C@H]([C@H](C)C[C@@H]2CC[C@@H](O)[C@H](OC)C2)CC(=O)[C@H](C)/C=C(\C)[C@@H](O)[C@@H](OC)C(=O)[C@H](C)C[C@H](C)/C=C/C=C/C=C/1C [Sirolimus]
Method: as §2

Test System	IC50 (SRB growth assay) (Erlotinib) [nM]	IC50 (SRB growth assay) (Docetaxel) [nM]	IC50 (SRB growth assay) (Paclitaxel) [nM]	IC50 (SRB growth assay) (MI-219) [nM]	IC50 (SRB growth assay) (Tamoxifen) [nM]	IC50 (SRB growth assay) (Sunitinib) [nM]	IC50 (SRB growth assay) (Methotrexate) [nM]	IC50 (SRB growth assay) (Sorafenib) [nM]	IC50 (SRB growth assay) (Vandetanib) [nM]	IC50 (SRB growth assay) (Gefitinib) [nM]	IC50 (SRB growth assay) (Nutlin-3) [nM]	IC50 (SRB growth assay) (Doxorubicin) [nM]	IC50 (SRB growth assay) (Lapatinib) [nM]	IC50 (SRB growth assay) (Panobinostat) [nM]	IC50 (SRB growth assay) (Brivanib) [nM]	IC50 (SRB growth assay) (Dasatinib) [nM]	IC50 (SRB growth assay) (Quisinostat) [nM]	IC50 (SRB growth assay) (Tipifarnib) [nM]	IC50 (SRB growth assay) (Cisplatin) [nM]	IC50 (SRB growth assay) (Azacitidine) [nM]	IC50 (SRB growth assay) (Decitabine) [nM]	IC50 (SRB growth assay) (Belinostat) [nM]	IC50 (SRB growth assay) (Vorinostat) [nM]	IC50 (SRB growth assay) (ARQ197) [nM]	IC50 (SRB growth assay) (Mitoxantrone) [nM]	IC50 (SRB growth assay) (5-Fluorouracil) [nM]	IC50 (SRB growth assay) (Serdemetan) [nM]	IC50 (SRB growth assay) (17-AAG) [nM]	IC50 (SRB growth assay) (Bortezomib) [nM]	IC50 (SRB growth assay) (Sirolimus) [nM]
OCUB-M	9580	0.279	0.888	> 10000	> 10000	3520	6.6	3830	2770	> 10000	> 10000	1.98	2200	8.13	> 10000	> 10000	5.92	156	> 10000	1690	3680	133	520	483	1.27	1880	2850	119	3.35	0.132
SKBR 3	3740	0.589	1.68	> 10000	6720	3410	9.97	4790	3490	2630	> 10000	20.4	43.7	5.39	> 10000	> 10000	3.33	279	> 10000	2690	2350	190	499	404	4.74	4770	1080	18.9	5.5	0.587
SUM 44 PE	> 10000	0.414	1.35	> 10000	5200	5020	> 10000	5050	4200	> 10000	> 10000	30.8	4760	9.33	> 10000	> 10000	2.21	3270	> 10000	3440	> 10000	139	564	539	20.7	8640	2880	15.8	9.46	0.222
SUM 52 PE	8810	0.489	1.42	> 10000	6890	1160	23.2	655	711	7870	> 10000	17.7	3210	7.17	1270	2200	1.47	185	6700	2000	2210	183	366	427	7.57	1240	570	35.4	5.23	0.165
T 47 D	7140	0.62	1.72	> 10000	3420	4310	> 10000	2730	2520	8770	> 10000	10.4	2210	10.5	> 10000	> 10000	8.14	403	> 10000	7300	> 10000	239	828	1460	2.65	2800	1100	913	1.7	0.143
UACC 812	4080	1.65	5.67	822	> 10000	5490	> 10000	3110	3540	4830	1720	79.9	132	29.9	> 10000	1600	17.2	666	> 10000	> 10000	> 10000	901	2270	528	275	6240	1050	3.62	7.5	0.144
ZR 75-1	> 10000	4.52	6.65	> 10000	4490	> 10000	34.5	5980	3820	> 10000	> 10000	44.9	6330	46.8	> 10000	1660	27.1	822	> 10000	3750	> 10000	1680	2980	733	10.2	2320	822	45.9	5.51	0.244
